Reference: BindingDB's records for patent US20250325711 (Hoffmann-La Roche, 2025)

These compounds were tested against Cannabinoid receptor 2 (Homo sapiens, UniProt P34972) (assay: Competition Binding Assay).
Method: To determine the affinity of CB2R-specific ligands, we used a simple competition kinetic binding assay. This approach involves the simultaneous addition of both fluorescent ligand and competitor to the CB2R preparation. 62.5 nM 8-SiR, concentration which avoid ligand depletion in this assay volume, were added simultaneously with increasing concentrations of the unlabeled compound to CB2R cell membranes (4 μg per well) in 40 μL of assay buffer in a 384-well plate incubated at room temperature with orbital mixing. The degree of fluorescent ligand bound to the receptor was assessed at equilibrium by HTRF detection. Nonspecific binding was determined as the amount of HTRF signal detected in the presence of SR144528 (1 μM) and was subtracted from total binding, to calculate specific binding for construction of IC50 curves.

Cannabinoid receptor 2, sequence (P34972 whole entry): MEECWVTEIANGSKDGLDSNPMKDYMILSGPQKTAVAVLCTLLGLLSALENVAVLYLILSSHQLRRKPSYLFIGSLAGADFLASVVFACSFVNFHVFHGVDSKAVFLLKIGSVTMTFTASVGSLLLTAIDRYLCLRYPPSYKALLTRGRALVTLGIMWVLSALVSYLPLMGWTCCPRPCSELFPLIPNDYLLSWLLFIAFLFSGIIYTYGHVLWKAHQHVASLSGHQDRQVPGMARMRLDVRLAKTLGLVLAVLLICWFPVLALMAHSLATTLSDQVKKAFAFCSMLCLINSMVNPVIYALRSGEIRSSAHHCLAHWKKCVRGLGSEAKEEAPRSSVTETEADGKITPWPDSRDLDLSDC

SMILES	Kd
COc1cc(C(C)(C)CCCCCCN=[N+]=[N-])cc(OC)c1[C@H]1C=C(CNC(=O)CCCCCCCCNC(=O)c2ccc(=O)n(S(=O)(=O)c3cccc(C(=O)NCC4CN(CCOCCNc5ccc([N+](=O)[O-])c6nonc56)N=N4)c3)c2)[C@H]2C[C@@H]1C2(C)C (some centres not stated) [US20250325711, Example 7]	0.0089 µM
COc1cc(C(C)(C)CCCCCCN=[N+]=[N-])cc(OC)c1[C@H]1C=C(CNC(=O)CCCCCCNC(=O)c2ccc(S(=O)(=O)N(CC#N)C(=O)CCC3CN(CCOCCNc4ccc([N+](=O)[O-])c5nonc45)N=N3)cc2)[C@H]2C[C@@H]1C2(C)C (some centres not stated) [US20250325711, Example 11]	0.152 µM
CCN(CC)c1ccc2c(c1)OC(=O)C(/C=C/c1ccc(S(=O)(=O)[O-])c[n+]1CCCCCC(=O)NCCOCCN1CC(CNC(=O)C3=CC(S(=O)(=O)N4CC(C(=O)NCCCCCCC(=O)NCC5=C[C@H](c6c(OC)cc(C(C)(C)CCCCCCN=[N+]=[N-])cc6OC)[C@@H]6C[C@H]5C6(C)C)C=CC4=O)CC=C3)N=N1)C2 (some centres not stated) [US20250325711, Example 5]	0.059 µM
COc1cc(C(C)(C)CCCCCCN=[N+]=[N-])cc(OC)c1[C@H]1C=C(CNC(=O)CCCCCCNC(=O)c2ccc(=O)n(S(=O)(=O)c3cccc(C(=O)NCC4CN(CCOCCNc5ccc([N+](=O)[O-])c6nonc56)N=N4)c3)c2)[C@H]2C[C@@H]1C2(C)C (some centres not stated) [US20250325711, Example 2]	0.0229 µM
COc1cc(C(C)(C)CCCCCCN=[N+]=[N-])cc(OC)c1[C@H]1C=C(CNC(=O)CCCCCCNC(=O)c2ccc(=O)n(S(=O)(=O)c3cccc(C(=O)NCC4CN(CCOCCOCCOCCOCCNc5ccc([N+](=O)[O-])c6nonc56)N=N4)c3)c2)[C@H]2C[C@@H]1C2(C)C (some centres not stated) [US20250325711, Example 4]	0.0045 µM
CCCCCCC(C)(C)c1cc(OC)c([C@H]2C=C(CNC(=O)CCCCCCNC(=O)c3ccc(=O)n(S(=O)(=O)c4cccc(C(=O)NCC5CN(CCOCCNc6ccc([N+](=O)[O-])c7nonc67)N=N5)c4)c3)[C@H]3C[C@@H]2C3(C)C)c(OC)c1 (some centres not stated) [US20250325711, Example 3]	0.0242 µM
COc1cc(C(C)(C)CCCCCCN=[N+]=[N-])cc(OC)c1[C@H]1C=C(CNC(=O)CCCCNC(=O)c2ccc(=O)n(S(=O)(=O)c3cccc(C(=O)NCCC4CN(CCOCCNc5ccc([N+](=O)[O-])c6nonc56)N=N4)c3)c2)[C@H]2C[C@@H]1C2(C)C (some centres not stated) [US20250325711, Example 1]	0.0091 µM
